Legend:
Assay type in all cases: biochemical
[1] = target: CK1d (casein kinase 1 delta) (Homo sapiens, UniProt P48730); experiment: Kinase selectivity, % remaining activity and IC50; settings: 10 μM ATP; for IC50: casein kinase 1 delta, 10-dose, 3 fold serial dilution
Experimental: (§1) A two-tier strategy to determine the selectivity of compound A was applied: first, the compound was tested at a single concentration (in duplicate) to determine the %-remaining activity of the target kinase. Subsequently, the IC50 of compound A and comparative compounds for casein kinase 1 delta were determined.
(§2) Compounds were tested in single dose duplicate mode at a concentration of 10 μM (in DMSO) and reactions were carried out at 10 μM ATP, Table 3 reports the % of remaining activity (relative to DMSO).
Control compound GW5074 (Tocris®) was tested starting at 20 μM. Reactions were carried out at 10 μM ATP.

PKCb2 = PKCb2 (Homo sapiens, UniProt P05771); experiment: Kinase selectivity, % remaining activity; settings: 10 μM compound, 10 μM ATP, duplicate
Experimental: as §1, §2

CK1g1 = CK1g1 (Homo sapiens, UniProt Q9HCP0); experiment: Kinase selectivity, % remaining activity; settings: 10 μM compound, 10 μM ATP, duplicate
Experimental: as §1, §2

CK1g3 = CK1g3 (Homo sapiens, UniProt Q9Y6M4); experiment: Kinase selectivity, % remaining activity; settings: 10 μM compound, 10 μM ATP, duplicate
Experimental: as §1, §2

CK1g2 = CK1g2 (Homo sapiens, UniProt P78368); experiment: Kinase selectivity, % remaining activity; settings: 10 μM compound, 10 μM ATP, duplicate
Experimental: as §1, §2

P38a/MAPK14 = P38a/MAPK14 (Homo sapiens, UniProt Q16539); experiment: Kinase selectivity, % remaining activity; settings: 10 μM compound, 10 μM ATP, duplicate
Experimental: as §1, §2

JNK2 = JNK2 (Homo sapiens, UniProt P45984); experiment: Kinase selectivity, % remaining activity; settings: 10 μM compound, 10 μM ATP, duplicate
Experimental: as §1, §2

FGFR1 = FGFR1 (Homo sapiens, UniProt P11362); experiment: Kinase selectivity, % remaining activity; settings: 10 μM compound, 10 μM ATP, duplicate
Experimental: as §1, §2

EGFR = EGFR (Homo sapiens, UniProt P00533); experiment: Kinase selectivity, % remaining activity; settings: 10 μM compound, 10 μM ATP, duplicate
Experimental: as §1, §2

EPHA2 = EPHA2 (Homo sapiens, UniProt P29317); experiment: Kinase selectivity, % remaining activity; settings: 10 μM compound, 10 μM ATP, duplicate
Experimental: as §1, §2

YES/YES1 = YES/YES1 (Homo sapiens, UniProt P07947); experiment: Kinase selectivity, % remaining activity; settings: 10 μM compound, 10 μM ATP, duplicate
Experimental: as §1, §2

PIM3 = PIM3 (Homo sapiens, UniProt Q86V86); experiment: Kinase selectivity, % remaining activity; settings: 10 μM compound, 10 μM ATP, duplicate
Experimental: as §1, §2

PKA = PKA (Homo sapiens, UniProt P17612); experiment: Kinase selectivity, % remaining activity; settings: 10 μM compound, 10 μM ATP, duplicate
Experimental: as §1, §2

CLK2 = CLK2 (Homo sapiens, UniProt P49760); experiment: Kinase selectivity, % remaining activity; settings: 10 μM compound, 10 μM ATP, duplicate
Experimental: as §1, §2

LCK = LCK (Homo sapiens, UniProt P06239); experiment: Kinase selectivity, % remaining activity; settings: 10 μM compound, 10 μM ATP, duplicate
Experimental: as §1, §2

TNIK = TNIK (Homo sapiens, UniProt Q9UKE5); experiment: Kinase selectivity, % remaining activity; settings: 10 μM compound, 10 μM ATP, duplicate
Experimental: as §1, §2

CK1e = CK1e (Homo sapiens, UniProt P49674); experiment: Kinase selectivity, % remaining activity; settings: 10 μM compound, 10 μM ATP, duplicate
Experimental: as §1, §2

KDR/VEGFR2 = KDR/VEGFR2 (Homo sapiens, UniProt P35968); experiment: Kinase selectivity, % remaining activity; settings: 10 μM compound, 10 μM ATP, duplicate
Experimental: as §1, §2

CDK5/p25 = CDK5/p25 (Homo sapiens, UniProt Q00535); experiment: Kinase selectivity, % remaining activity; settings: 10 μM compound, 10 μM ATP, duplicate
Experimental: as §1, §2

RIPK2 = RIPK2 (Homo sapiens, UniProt O43353); experiment: Kinase selectivity, % remaining activity; settings: 10 μM compound, 10 μM ATP, duplicate
Experimental: as §1, §2

ROCK1 = ROCK1 (Homo sapiens, UniProt Q13464); experiment: Kinase selectivity, % remaining activity; settings: 10 μM compound, 10 μM ATP, duplicate
Experimental: as §1, §2

ABL2/ARG = ABL2/ARG (Homo sapiens, UniProt P42684); experiment: Kinase selectivity, % remaining activity; settings: 10 μM compound, 10 μM ATP, duplicate
Experimental: as §1, §2

ALK5/TGFBR1 = target: T1, ALK5/TGFBR1 (Homo sapiens, UniProt P36897); experiment: Kinase selectivity, % remaining activity; settings: 10 μM compound, 10 μM ATP, duplicate
T1 sequence (P36897 34-503): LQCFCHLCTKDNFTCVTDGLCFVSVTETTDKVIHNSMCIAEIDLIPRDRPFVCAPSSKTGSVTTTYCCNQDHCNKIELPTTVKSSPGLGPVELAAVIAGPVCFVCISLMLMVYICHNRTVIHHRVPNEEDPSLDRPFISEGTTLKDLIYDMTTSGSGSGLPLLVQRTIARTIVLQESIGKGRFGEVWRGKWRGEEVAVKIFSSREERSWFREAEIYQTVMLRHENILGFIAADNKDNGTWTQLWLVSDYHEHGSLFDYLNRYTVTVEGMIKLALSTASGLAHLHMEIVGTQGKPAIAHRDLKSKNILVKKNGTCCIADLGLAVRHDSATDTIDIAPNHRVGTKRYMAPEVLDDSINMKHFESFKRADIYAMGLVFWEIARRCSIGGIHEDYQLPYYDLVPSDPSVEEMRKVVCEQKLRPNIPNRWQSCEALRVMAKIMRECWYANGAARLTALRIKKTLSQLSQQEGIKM
Experimental: as §1, §2

GSK3B = GSK3B (Homo sapiens, UniProt P49841); experiment: Kinase selectivity, % remaining activity; settings: 10 μM compound, 10 μM ATP, duplicate
Experimental: as §1, §2

MSK1/RPS6KA5 = MSK1/RPS6KA5 (Homo sapiens, UniProt O75582); experiment: Kinase selectivity, % remaining activity; settings: 10 μM compound, 10 μM ATP, duplicate
Experimental: as §1, §2

PDK1/PDPK1 = target: T2, PDK1/PDPK1 (Homo sapiens, UniProt O15530); experiment: Kinase selectivity, % remaining activity; settings: 10 μM compound, 10 μM ATP, duplicate
T2 sequence (O15530 1-556): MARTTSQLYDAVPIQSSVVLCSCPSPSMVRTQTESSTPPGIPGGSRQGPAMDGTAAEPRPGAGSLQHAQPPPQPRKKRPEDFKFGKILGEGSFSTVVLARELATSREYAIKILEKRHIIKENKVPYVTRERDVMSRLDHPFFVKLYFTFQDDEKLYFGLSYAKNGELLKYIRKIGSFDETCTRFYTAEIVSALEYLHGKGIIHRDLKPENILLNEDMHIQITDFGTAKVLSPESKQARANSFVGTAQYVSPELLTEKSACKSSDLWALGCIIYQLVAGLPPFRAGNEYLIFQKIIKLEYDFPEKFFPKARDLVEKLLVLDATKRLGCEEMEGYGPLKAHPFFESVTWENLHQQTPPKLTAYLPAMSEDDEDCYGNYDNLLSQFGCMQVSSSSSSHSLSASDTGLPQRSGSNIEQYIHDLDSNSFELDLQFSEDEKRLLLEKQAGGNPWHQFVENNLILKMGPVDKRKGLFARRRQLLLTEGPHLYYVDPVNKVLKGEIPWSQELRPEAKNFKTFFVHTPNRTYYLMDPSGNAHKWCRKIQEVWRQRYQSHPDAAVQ
Experimental: as §1, §2

CK1a1 = CK1a1 (Homo sapiens, UniProt P48729); experiment: Kinase selectivity, % remaining activity; settings: CK1a1, 10 μM compound, 10 μM ATP, duplicate
Experimental: as §2

[2] = read-out: % of remaining activity (relative to DMSO)

Sequence of CK1d (casein kinase 1 delta) (P48730 whole entry): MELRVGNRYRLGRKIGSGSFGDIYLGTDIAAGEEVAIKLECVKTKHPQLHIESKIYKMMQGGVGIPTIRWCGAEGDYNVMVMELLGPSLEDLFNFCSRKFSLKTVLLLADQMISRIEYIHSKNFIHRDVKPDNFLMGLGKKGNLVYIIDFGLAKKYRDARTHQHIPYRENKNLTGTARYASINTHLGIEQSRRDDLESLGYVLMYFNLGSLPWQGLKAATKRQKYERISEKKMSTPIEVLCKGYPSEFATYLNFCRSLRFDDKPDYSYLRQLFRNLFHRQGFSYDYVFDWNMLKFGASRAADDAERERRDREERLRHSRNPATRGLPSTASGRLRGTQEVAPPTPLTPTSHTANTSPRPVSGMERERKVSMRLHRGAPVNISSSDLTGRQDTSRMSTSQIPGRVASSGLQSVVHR
Sequence of P38a/MAPK14 (Q16539 whole entry): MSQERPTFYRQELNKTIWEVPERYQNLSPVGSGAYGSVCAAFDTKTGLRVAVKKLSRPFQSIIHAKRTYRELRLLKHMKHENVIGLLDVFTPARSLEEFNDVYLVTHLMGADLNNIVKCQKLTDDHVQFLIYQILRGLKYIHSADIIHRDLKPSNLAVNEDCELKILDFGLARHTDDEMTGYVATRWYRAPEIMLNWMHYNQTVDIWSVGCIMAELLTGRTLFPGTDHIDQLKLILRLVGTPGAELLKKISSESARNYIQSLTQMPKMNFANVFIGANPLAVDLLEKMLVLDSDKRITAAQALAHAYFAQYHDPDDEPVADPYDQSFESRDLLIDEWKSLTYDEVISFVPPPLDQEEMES
Sequence of MSK1/RPS6KA5 (O75582 whole entry): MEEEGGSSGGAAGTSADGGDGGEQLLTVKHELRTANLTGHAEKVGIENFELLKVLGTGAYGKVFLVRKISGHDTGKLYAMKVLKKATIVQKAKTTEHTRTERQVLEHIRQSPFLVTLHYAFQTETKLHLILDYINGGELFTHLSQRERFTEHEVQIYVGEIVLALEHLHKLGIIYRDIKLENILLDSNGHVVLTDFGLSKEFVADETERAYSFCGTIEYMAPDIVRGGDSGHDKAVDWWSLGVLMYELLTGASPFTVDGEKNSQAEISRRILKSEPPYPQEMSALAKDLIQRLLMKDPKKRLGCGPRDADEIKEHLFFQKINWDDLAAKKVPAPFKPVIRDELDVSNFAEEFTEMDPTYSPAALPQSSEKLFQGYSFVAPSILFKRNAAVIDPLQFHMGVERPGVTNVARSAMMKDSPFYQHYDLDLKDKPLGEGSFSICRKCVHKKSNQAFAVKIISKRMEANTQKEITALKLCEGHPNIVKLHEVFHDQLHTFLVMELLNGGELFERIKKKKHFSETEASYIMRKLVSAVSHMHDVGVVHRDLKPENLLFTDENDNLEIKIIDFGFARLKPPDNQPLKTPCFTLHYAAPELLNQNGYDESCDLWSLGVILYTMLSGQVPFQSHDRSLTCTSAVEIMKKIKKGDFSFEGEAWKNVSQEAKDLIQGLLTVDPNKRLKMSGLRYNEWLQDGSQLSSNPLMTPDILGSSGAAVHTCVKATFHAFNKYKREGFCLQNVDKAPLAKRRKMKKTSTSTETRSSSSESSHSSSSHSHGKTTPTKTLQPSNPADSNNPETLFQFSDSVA
Sequence of CK1g2 (P78368 whole entry, species assumed): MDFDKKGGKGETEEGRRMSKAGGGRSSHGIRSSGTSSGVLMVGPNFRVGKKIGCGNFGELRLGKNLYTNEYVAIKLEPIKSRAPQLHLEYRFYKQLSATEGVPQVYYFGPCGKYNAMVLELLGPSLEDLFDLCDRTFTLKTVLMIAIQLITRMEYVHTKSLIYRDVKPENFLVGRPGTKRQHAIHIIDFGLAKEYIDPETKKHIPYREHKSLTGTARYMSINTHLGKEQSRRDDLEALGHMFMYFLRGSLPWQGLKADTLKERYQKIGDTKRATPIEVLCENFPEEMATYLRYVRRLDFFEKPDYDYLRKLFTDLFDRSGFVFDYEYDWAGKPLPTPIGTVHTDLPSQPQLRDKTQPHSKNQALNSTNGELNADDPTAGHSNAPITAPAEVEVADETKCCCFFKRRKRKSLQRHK
Sequence of KDR/VEGFR2 (P35968 20-1356): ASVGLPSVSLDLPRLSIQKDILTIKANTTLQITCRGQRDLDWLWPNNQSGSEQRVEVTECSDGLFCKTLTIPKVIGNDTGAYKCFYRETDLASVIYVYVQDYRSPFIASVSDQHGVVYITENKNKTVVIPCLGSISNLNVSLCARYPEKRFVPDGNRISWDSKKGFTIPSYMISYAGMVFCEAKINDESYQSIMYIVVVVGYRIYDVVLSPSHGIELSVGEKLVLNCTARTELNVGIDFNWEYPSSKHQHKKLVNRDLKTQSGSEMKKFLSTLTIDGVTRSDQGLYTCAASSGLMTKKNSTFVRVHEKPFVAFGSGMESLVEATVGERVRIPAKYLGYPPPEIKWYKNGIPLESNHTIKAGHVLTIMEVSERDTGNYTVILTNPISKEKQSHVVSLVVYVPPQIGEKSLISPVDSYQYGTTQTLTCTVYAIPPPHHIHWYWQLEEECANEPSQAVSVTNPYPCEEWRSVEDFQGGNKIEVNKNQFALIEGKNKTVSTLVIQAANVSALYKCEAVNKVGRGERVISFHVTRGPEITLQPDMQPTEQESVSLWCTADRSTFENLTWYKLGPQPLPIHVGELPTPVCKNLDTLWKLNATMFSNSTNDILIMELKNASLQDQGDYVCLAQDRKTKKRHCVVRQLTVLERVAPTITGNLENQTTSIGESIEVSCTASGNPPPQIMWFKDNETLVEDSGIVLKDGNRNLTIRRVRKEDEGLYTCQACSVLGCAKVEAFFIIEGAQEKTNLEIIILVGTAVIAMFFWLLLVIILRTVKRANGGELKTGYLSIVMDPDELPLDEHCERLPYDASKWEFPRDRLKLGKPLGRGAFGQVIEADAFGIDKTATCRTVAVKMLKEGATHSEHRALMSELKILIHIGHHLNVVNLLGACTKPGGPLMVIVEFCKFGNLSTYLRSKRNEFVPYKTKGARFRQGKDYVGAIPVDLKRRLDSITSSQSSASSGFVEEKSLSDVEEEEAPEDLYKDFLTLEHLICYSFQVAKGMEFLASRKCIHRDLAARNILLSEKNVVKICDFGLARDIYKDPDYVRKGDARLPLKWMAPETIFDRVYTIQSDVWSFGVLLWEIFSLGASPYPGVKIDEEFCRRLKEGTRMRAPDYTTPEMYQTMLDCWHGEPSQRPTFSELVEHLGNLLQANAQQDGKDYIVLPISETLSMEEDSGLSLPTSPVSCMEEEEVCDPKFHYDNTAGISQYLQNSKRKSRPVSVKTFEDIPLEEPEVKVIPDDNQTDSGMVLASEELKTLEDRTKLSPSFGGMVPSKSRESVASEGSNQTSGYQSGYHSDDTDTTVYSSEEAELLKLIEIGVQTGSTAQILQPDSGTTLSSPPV
Sequence of CK1a1 (P48729 whole entry): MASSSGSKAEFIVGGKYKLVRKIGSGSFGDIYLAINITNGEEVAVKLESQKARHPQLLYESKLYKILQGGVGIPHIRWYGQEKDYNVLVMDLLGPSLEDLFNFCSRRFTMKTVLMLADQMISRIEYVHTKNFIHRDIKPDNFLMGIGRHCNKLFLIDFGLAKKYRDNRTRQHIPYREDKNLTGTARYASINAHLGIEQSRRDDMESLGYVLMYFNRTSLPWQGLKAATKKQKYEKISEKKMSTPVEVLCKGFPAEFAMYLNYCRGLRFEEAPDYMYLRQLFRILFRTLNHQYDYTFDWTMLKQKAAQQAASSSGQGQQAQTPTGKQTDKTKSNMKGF
Sequence of GSK3B (P49841 whole entry): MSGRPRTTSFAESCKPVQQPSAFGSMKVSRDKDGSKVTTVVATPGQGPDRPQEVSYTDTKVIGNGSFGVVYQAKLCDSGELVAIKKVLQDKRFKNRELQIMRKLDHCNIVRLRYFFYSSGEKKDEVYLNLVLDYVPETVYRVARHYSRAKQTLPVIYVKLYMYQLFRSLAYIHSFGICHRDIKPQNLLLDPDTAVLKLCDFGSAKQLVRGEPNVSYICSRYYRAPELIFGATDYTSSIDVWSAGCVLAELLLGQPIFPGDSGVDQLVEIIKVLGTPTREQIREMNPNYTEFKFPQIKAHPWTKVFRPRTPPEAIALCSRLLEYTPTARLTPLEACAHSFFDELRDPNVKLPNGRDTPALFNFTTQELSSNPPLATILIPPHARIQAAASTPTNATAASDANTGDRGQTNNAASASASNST
Sequence of CK1g1 (Q9HCP0 whole entry): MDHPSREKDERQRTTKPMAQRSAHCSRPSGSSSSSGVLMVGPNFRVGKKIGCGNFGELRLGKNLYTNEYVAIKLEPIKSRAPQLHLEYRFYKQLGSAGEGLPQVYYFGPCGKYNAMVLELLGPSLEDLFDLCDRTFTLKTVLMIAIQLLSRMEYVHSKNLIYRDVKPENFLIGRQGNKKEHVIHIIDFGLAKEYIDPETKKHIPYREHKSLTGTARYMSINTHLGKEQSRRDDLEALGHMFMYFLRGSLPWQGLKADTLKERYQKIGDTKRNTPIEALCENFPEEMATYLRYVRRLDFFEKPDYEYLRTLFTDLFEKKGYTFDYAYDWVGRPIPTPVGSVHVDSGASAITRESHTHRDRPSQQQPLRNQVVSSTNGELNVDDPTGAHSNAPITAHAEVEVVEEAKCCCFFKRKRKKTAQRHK
Sequence of JNK2 (P45984 whole entry): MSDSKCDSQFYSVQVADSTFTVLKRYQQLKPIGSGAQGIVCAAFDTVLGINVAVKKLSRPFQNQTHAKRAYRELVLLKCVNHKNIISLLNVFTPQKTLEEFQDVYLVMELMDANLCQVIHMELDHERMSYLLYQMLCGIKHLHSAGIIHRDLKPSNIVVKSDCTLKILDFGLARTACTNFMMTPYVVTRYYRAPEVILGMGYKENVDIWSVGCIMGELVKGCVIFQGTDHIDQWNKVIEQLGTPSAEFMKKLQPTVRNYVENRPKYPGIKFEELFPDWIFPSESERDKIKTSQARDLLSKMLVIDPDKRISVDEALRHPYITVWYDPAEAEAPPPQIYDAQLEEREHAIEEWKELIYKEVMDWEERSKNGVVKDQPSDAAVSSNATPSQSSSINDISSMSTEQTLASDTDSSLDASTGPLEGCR

SMILES: NC(=O)c1c(N)c(C(=O)c2ccc(F)cc2)n2ccccc12 [Comparative Compound 987, 2-amino-3-[(4-fluorophenyl)carbonyl]indolizine-1-carboxamide]
- % of remaining activity (relative to DMSO) ([1]; CK1d, 10 μM compound, duplicate, listed as Cmp 987): 5.40%
- remaining activity at 10 µM ([1]; CK1d, 10 μM compound, duplicate, read-out: % of remaining activity (relative to DMSO)): 5.71%
- IC50 [1]: 0.31 µM
- % of remaining activity (relative to DMSO) (PKCb2; listed as Cmp 987): 66.13%
- remaining activity at 10 µM (PKCb2; [2]): 73%
- % of remaining activity (relative to DMSO) (CK1g1; listed as Cmp 987): 99.58%
- remaining activity at 10 µM (CK1g1; [2]): 104%
- % of remaining activity (relative to DMSO) (CK1g3; listed as Cmp 987): 97.42%
- remaining activity at 10 µM (CK1g3; [2]): 101%
- % of remaining activity (relative to DMSO) (CK1g2; listed as Cmp 987): 78.23%
- remaining activity at 10 µM (CK1g2; [2]): 77.7%
- % of remaining activity (relative to DMSO) (P38a/MAPK14; listed as Cmp 987): 17.83^$ %
- remaining activity at 10 µM (P38a/MAPK14; [2]): 17.6%
- % of remaining activity (relative to DMSO) (JNK2; listed as Cmp 987): 63.80%
- remaining activity at 10 µM (JNK2; [2]): 60%
- % of remaining activity (relative to DMSO) (FGFR1; listed as Cmp 987): 86.54%
- remaining activity at 10 µM (FGFR1; [2]): 78.7%
- % of remaining activity (relative to DMSO) (EGFR; listed as Cmp 987): 34.51%
- remaining activity at 10 µM (EGFR; [2]): 32%
- % of remaining activity (relative to DMSO) (EPHA2; listed as Cmp 987): 50.05%
- remaining activity at 10 µM (EPHA2; [2]): 49.4%
- % of remaining activity (relative to DMSO) (YES/YES1; listed as Cmp 987): 40.00%
- remaining activity at 10 µM (YES/YES1; [2]): 42.8%
- % of remaining activity (relative to DMSO) (PIM3; listed as Cmp 987): 75.10%
- remaining activity at 10 µM (PIM3; [2]): 88.8%
- % of remaining activity (relative to DMSO) (PKA; listed as Cmp 987): 33.43%
- remaining activity at 10 µM (PKA; [2]): 36.9%
- % of remaining activity (relative to DMSO) (CLK2; listed as Cmp 987): 72.17%
- remaining activity at 10 µM (CLK2; [2]): 72.7%
- % of remaining activity (relative to DMSO) (LCK; listed as Cmp 987): 58.89%
- remaining activity at 10 µM (LCK; [2]): 63.9%
- % of remaining activity (relative to DMSO) (TNIK; listed as Cmp 987): 69.49%
- remaining activity at 10 µM (TNIK; [2]): 68.5%
- % of remaining activity (relative to DMSO) (CK1e; listed as Cmp 987): 18.19%
- remaining activity at 10 µM (CK1e; [2]): 20.1%
- % of remaining activity (relative to DMSO) (KDR/VEGFR2; listed as Cmp 987): 83.06%
- remaining activity at 10 µM (KDR/VEGFR2; [2]): 90.3%
- % of remaining activity (relative to DMSO) (CDK5/p25; listed as Cmp 987): 91.79%
- remaining activity at 10 µM (CDK5/p25; [2]): 98.2%
- % of remaining activity (relative to DMSO) (RIPK2; listed as Cmp 987): 40.46%
- remaining activity at 10 µM (RIPK2; [2]): 36.3%
- % of remaining activity (relative to DMSO) (ROCK1; listed as Cmp 987): 92.49%
- remaining activity at 10 µM (ROCK1; [2]): 96.9%
- % of remaining activity (relative to DMSO) (ABL2/ARG; listed as Cmp 987): 83.33%
- remaining activity at 10 µM (ABL2/ARG; [2]): 88.1%
- % of remaining activity (relative to DMSO) (ALK5/TGFBR1; listed as Cmp 987): 37.80%
- remaining activity at 10 µM (ALK5/TGFBR1; [2]): 39.8%
- % of remaining activity (relative to DMSO) (GSK3B; listed as Cmp 987): 68.98%
- remaining activity at 10 µM (GSK3B; [2]): 70%
- % of remaining activity (relative to DMSO) (MSK1/RPS6KA5; listed as Cmp 987): 87.76%
- remaining activity at 10 µM (MSK1/RPS6KA5; [2]): 91.4%
- % of remaining activity (relative to DMSO) (PDK1/PDPK1; listed as Cmp 987): 98.31%
- remaining activity at 10 µM (PDK1/PDPK1; [2]): 95%
- % of remaining activity (relative to DMSO) (CK1a1; listed as Cmp 987): 17.57%
- remaining activity at 10 µM (CK1a1; [2]): 20.3%

SMILES: O=C1Nc2ccc(I)cc2/C1=C/c1cc(Br)c(O)c(Br)c1 [GW5074]
- IC50 [1]: 0.113 µM
